The source of these data is PMC11874377, “Fungal-derived methyldeoxaphomins target Plasmodium falciparum segregation through the inhibition of PfActin1” (Proceedings of the National Academy of Sciences of the …, 2025).

SMILES strings stand for the structures. Like-named read-outs stand apart in the source and are kept apart here.

Data set [1] relates to P. falciparum multidrug resistant line Dd2. Put plainly: SYBR Green I-based antiplasmodial assay, asexual blood stage, Dd2. The data set is classed as cell-based, Plasmodium falciparum. The method, then:
(§1) The antiplasmodial activity of these analogs was assessed in P. falciparum asexual blood stage using a SYBR Green I-based assay. Compounds were tested in both the multidrug resistant line Dd2, and the chloroquine-sensitive line 3D7, to probe any potential for preexisting resistance. […] These methyldeoxaphomin analogs were also cross-screened for cytotoxicity in the human cell line HepG2 to determine their selectivity for the Plasmodium parasite. […] This effect was maintained with analog NPDG-F where both R1 and R2 were substituted with OH groups. […] In addition, the hydroxyl group at carbon 7 seems to be critical for function as a drastic loss of potency was found in NPDG-D as compared to B and C. […]
Plasmodium blood stage culture
Parasite culture in the Chakrabarti lab was maintained following a modified Trager and Jensen protocol (Trager & Jensen, 1976) as previously described (Lee et al., 2021) with RPMI 1640 with 25 mM HEPES pH 7.4, 26 mM NaHCO3, 15 mg/L hypoxanthine, 0.5% Albumax II, 25 mg/L gentamycin, and 2% dextrose. Parasites were grown with human A+ erythrocytes obtained from Florida OneBlood. Cultures were kept in an incubator with 5% […]
Antiplasmodial activity screening
SYBR Green I-based fluorescence assay was performed as previously described (Lee et al., 2021) following protocols by Smilkstein et. al. (Smilkstein et al., 2004). Asynchronous Dd2 parasites were added to serially diluted compounds and incubated for 72 h at 5% CO2, 95% air at 37°C. Plates were then frozen at -80°C, thawed, and incubated for one hour with 1x SYBR Green I in a lysis buffer (20 mM Tris-HCL, 0.08% saponin, 5 mM EDTA, and 0.8% Triton X-100). Fluorescence was then read on a Synergy Neo2 multimode reader (BioTek Winsooki, VT). […]

Data set [2] has as its system human HepG2 hepatoma cells. Put plainly: cells. The following applies: for EC50: Homo sapiens. The class given is cell-based. The method, then:
as §1
Cytotoxicity was assessed using an MTS (3-(4,5-Dimethylthiazol-2-yl)-5-(3-carboxymethoxyphenyl)-2-(4-sulfophenyl)-2H-tetrazolium) absorbance assay with human HepG2 hepatoma cells. Cells were maintained in MEM supplemented with 10%FBS, 1% Antibiotic/Antimycotic, 1 mM sodium pyruvate, and 0.15% sodium bicarbonate in a 5 % CO2, 95% air environment at 37°C. For the assay cells were seeded at a density of 2,250 cells per well on 384-well microtiter plates 24 h prior to compound addition. Following a 48-h incubation with compounds, MTS solution was added to wells and absorbance was read after 2-4 h on a Synergy Neo2 multimode reader (BioTek Winsooki, VT). Compound dose response curves and EC50 determination was performed using CDD Vault normalized to 5% triton and vehicle controls. […]

A word on the EC50: it is the concentration giving half of the maximal effect. In the case of `C=C1C(C)C2C(Cc3ccccc3)NC(=O)C23C(=O)C=CC(O)C(O)C(C)CC(C)CC=CC3C1O` (stereo not shown) [Methyldeoxaphomin NPDG-F], the EC50 is 550 nM in data set [1] (Plasmodium falciparum, DD2, 72 h, read-out: Dd2 EC50, means from triplicate experiments ± SEM, 72 h); 550 ± 40 nM in data set [1] (Plasmodium falciparum, DD2, read-out: Dd2: Average EC50, average ± SEM of three replicates); 500 nM in data set [1] (Plasmodium falciparum, DD2, read-out: Dd2: EC50, individual replicates); 550 nM in data set [1] (Plasmodium falciparum, DD2, read-out: EC50 in Dd2, abstract); 580 nM in data set [1] (read-out: Dd2: EC50, individual replicates); more than 25 µM in data set [2] (HepG2, 48 h, means from triplicate experiments ± SEM, 48-h incubation, read-out: HepG2 EC50). Moreover, the EC50 in data set [2] (HepG2, average ± SEM of three replicates, read-out: HepG2: Average EC50) is more than 25 µM; in data set [2] (HepG2, individual replicates, read-out: HepG2: EC50) it was more than 25 µM. Further, the “cytotoxicity in HepG2 at the highest concentration tested” value in data set [2] (25 µM) was “no signs of cytotoxicity”. In addition, in data set [2] (HepG2 EC50/(mean of Dd2 EC50, 3D7 EC50)), the “Selectivity Index (SI)” value was more than 60.
